Experimental findings from patent US20110212909A1, “Use of Ginsenoside Compound K in the Preparation of a Medicament for the Prevention and Treatment of Atherosclerosis” (priority 2008, published 2011) are described below.

Marks after values point to notes of the source that are not given here.

Format in all cases: cell-based
One assay relates to CD36 mRNA. As to the kind of experiment: Real-time quantitative PCR of CD36 mRNA in foam cells. The settings on record: 25 μM, rat foam cells. Here is the method:
FIG. 1 provides effects of a ginsenoside compound K (C-K, 25 μM) and pyrrolidine dithiocarbamate (PDTC, 25 μM) on the foam cell CD36 mRNA expression. a: P<0.05, vs foam cell group; b: P<0.05, vs PDTC. PDTC (25 μM) C-K (25 μM) (n=5).
(1) Material and reagents (the same as Example 2).
(2) real-time quantitative PCR analysis (a reference method: Zhang Yiguan, Li Xiaohui, Fan Jishan, Zhang Haigang, Li Shuhui, Liao Wenqiang, Pang Yan, Jia Yi. Total panax notoginsenosides suppress atherosclerosis formation in rats by means of antiinflammatory and blood fat regulating action. Progress in Modern Biomedicine. 2007, 27(11): 1601-1607).
(§1) Data was expressed as x±s, variance analysis were carried out between groups by SPSS 13.0 software.

Assay [1] has as its system macrophage-derived foam cells of rat abdominal cavity. As to the kind of experiment: Assay of amount of TC and CE in ox-LDL induced macrophage-derived foam cells. The protocol:
1. Experiment animal: SD rats, male, 200-250 g, bought from the third Military Medical University Experiment Animal Center.
2. Reagents: RPMI 1640 culture medium free of phenol red bought from Invitrogen company; LDL (115 mg/mL) bought from Peking Union Medical College; total cholesterol kit and free cholesterol kit bought from Shanghai Mind Bioengineering Limited Company; ginsenoside compound K (hereinafter being called C-K for short. White powders, purity 99%), provided by Kunming Nuowei Jinshen Bioengineering limited company supply (batch number: NTGA070521, details see China invention patent 200710066011. X “a method of preparing rare ginsenoside compound K by streptomycete fermentation of Sanchi saponins”).
LDL was placed into PBS comprising 10 μM Cu^2+, dialysed at 37° C. for 12 h, then was placed into PBS comprising 0.01% EDTA, and dialysed at 4° C. for 24 hours before stopping oxidization, then was subjected to filtration sterilization, and stored for use.
4. Culture of macrophage and establishment of foam cells model (available literature: Jia Yi, Li Xiaohui, Xing Mao, Hei Xuefeng, Liu Ya, He Cuiyao. Studies on affect of various combinations of 3 sorts of monomers in total panax notoginsenosides on formation of mouse macrophage-derived foam cells. Journal of China Pharmacy, 2008, 19 (2), 881-883.)
each rat were intraperitoneally injected with 2 mL RPMI 1640 culture solution free of serum and phenol red, and it was sacrificed by cervical dislocation after 20 minutes, and was soaked in 75% ethanol for 10 minutes, then rat's belly was cut open, and fluids in abdominal cavity were collected, and centrifugated at 750 r/min for 5 minutes, and then cells were collected, and cells concentrations were adjusted to […] by using RPMI 1640 culture solution which were free of phenol red and comprised 10% Fetal Calf Serum. 10 pieces of 6 wells plate was added 1 mL cells suspension per well, and was placed into an incubator of 5% CO2 at 37 °C, and cultured for two hours, then supernatant was discarded, and nonadhesive cells was washed by using PBS. Original culture medium was discarded. Culture was carried out for 48 hours after adding 5 mL culture medium comprising 20 mg/L ox-LDL, and thereby foam cells were formed.
[…] were divided into ox-LDL model group, pyrrolidine dithiocarbamate (PDTC) (drugs source: Sigma), control group and C-K interference group. Each group had 5 pieces of plates. […]
Culture solution was aspirated, and lipid in foam cells was extracted by Folch method (reference: Folch J et al, A simple method for the isolation and purification of total lipides from animal tissues. J Biol Chem, 1957, 226 (1): 497-509), according to direction for use of kit.
Data was expressed as x±s, and variance analysis was carried out between groups by SPSS 13.0 software.

The next assay deals with perilipin protein. Put plainly: Protein expression of perilipin in foam cells. To be noted: 25 μM, rat foam cells. Here is the method: FIG. 3 provides effects of a ginsenoside compound K (C-K, 25 μM) and pyrrolidine dithiocarbamate (PDTC, 25 μM) on the protein expression of perilipin in foam cell. a: P<0.01, vs foam cell group PDTC (25 μM) C-K (25 μM) (n=5).
(1) Material and reagents (the same as Examples 2).
as §1

`CC(C)=CCC[C@](C)(OC1OC(CO)C(O)C(O)C1O)C1CC[C@]2(C)C1[C@H](O)CC1[C@@]3(C)CC[C@H](O)C(C)(C)C3CC[C@]12C` (stereo partly drawn) [C-K, 20-O-β-D-glucopyranosyl 20-(S)-protopanaxadiol]: the “change of CD36 mRNA expression in foam cells compared with model group” value in the assay on CD36 mRNA is given as “not obvious”. Moreover, in assay [1] (25 nM as printed in text), the “TC and CE amount in foam cells compared with model group” value was “significantly lowered”. The “CE in foam cells” value in assay [1] (25 μM, 48 hours, rat foam cells, x ± s, n = 5, ox-LDL model group 15.24 ± 2.38) was 28.12 ± 3.12^a. Besides, the “CE/TC in foam cells” value in assay [1] (25 μM, 48 hours, rat foam cells, x ± s, n = 5, ox-LDL model group 59.56 ± 2.96) is 47.01 ± 3.80^a %. Further, in assay [1] (25 μM, 48 hours, rat foam cells, x ± s, n = 5, ox-LDL model group 87.20 ± 2.19), the “TC in foam cells” value is reported as 59.72 ± 2.38^a. Moreover, in the assay on perilipin protein, the “expression of perilipin proteins in foam cells compared with model group” value is “significantly down-regulated”.
